Test results: patent publication US6020328A, “20-keto-11β-arylsteroids and their derivatives having agonist or antagonist hormonal properties” (Research Triangle Institute, priority 1998, dated 2000)
Several values for one entry are separate records, joined by “and”; a condition that tells them apart may be missing. Equal values may be shown once.

Legend:
[1] = target: T1, androgen receptor (Rattus norvegicus, UniProt P15207); assay: androgen receptor binding
T1 construct: using the cytosolic receptor from rat central prostate; from tissue
T1 sequence (P15207 1-902): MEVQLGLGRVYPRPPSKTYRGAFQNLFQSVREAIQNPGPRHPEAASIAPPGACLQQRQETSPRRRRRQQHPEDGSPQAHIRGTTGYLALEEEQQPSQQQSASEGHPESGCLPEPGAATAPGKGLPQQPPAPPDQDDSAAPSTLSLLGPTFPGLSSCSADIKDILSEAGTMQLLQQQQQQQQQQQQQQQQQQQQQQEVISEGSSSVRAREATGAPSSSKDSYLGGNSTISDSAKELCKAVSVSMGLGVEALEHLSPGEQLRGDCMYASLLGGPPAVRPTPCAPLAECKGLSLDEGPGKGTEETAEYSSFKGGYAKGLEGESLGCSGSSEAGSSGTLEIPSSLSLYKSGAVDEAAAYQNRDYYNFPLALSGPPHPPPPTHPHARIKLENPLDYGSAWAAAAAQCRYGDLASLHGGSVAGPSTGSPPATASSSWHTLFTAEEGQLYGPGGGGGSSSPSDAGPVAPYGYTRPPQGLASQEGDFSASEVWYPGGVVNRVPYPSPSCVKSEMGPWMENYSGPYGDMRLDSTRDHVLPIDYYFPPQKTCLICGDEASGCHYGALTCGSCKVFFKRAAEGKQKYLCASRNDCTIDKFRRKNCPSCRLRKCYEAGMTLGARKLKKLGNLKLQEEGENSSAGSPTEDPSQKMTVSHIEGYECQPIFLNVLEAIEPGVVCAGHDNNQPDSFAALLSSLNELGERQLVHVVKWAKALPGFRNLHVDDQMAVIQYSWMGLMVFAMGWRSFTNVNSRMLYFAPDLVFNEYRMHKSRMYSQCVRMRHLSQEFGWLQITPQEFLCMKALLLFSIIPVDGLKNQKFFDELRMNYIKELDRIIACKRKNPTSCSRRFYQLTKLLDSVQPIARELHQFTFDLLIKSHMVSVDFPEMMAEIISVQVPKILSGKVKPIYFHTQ

[2] = test system: rabbits; assay: McGinty test (agonist, test compound alone); format: in vivo, rabbit
Experimental: (§2) Progestational activity and antiprogestational activity were determined in rabbits by means of the McGinty test (test compound alone, procedure of McGinty et al., Endocrinology, 24:829-832 (1939)) or anti-McGinty test (test compound plus progesterone, procedure of Tamara et al., Jpn. J. Fertil. Steril. 24:48-81 (1979)). Results were scored according to McPhail (McPhail, J. Physiol., 83:146 (1934)).

[3] = test system: rabbits; assay: anti-McGinty test (antagonist, test compound plus progesterone); format: in vivo, rabbit
Experimental: as §2

[4] = target: progestin receptor (hPR); assay: progestin receptor binding; details: cytosol from human T-47D breast cells; [3H]-R5020; read-out: Receptor Binding Affinity hPR IC50
Description: However, the receptors were of human origin and a different radioligand was used. Thus, for progestin receptor binding the receptor was obtained in cytosol from human T-47D breast cells and [^3 H]-R5020 was used as the radioligand. Data are expressed as IC50 values, i.e., the concentration of compound that inhibits the radioligand binding by 50%.

[5] = test system: immature female rabbits; assay: anti-estrogenic activity in vivo (uterine weight); design: species or system rabbit
Experimental: Steril. 52: 1055-1060 (1989). […] The weight of uteri from untreated immature rabbits was increased from 246±87 (S.E.) mg with no estradiol to 1402±104 mg with estradiol alone. Concurrent treatment of rabbits with estradiol and 10 mg/day of 17α-acetoxy-11β-(4-(N-piperidino)phenyl)-19-norpregna-4,9-diene-3,20-dione reduced the uterine weights to 998±98 mg. Likewise 17α-acetoxy-11β-(4-N-pyrrolidino)phenyl)-19-norpregna-4,9-diene-3,20-dione at 10 mg/day reduced the uterine weight to 919±115 mg, and 17α-acetoxy-11β-(1-methyl-5-indolyl)-19-norpregna-4,9-diene-3,20-dione reduced uterine weight to 956±115 mg at the same dose.

[6] = test system: immature New Zealand white rabbits; assay: anti-Clauberg assay for oral antiprogestational activity; format: in vivo, rabbit; details: for ED50, anti-Clauberg assay: 5 days; for ED50, anti-Clauberg assay / effectiveness in inhibiting the endometrial response: with progesterone SC
Experimental: In this assay immature New Zealand white rabbits were primed with estrogen by treatment with estradiol for six days. They were then given progesterone subcutaneously (SC) and the test compound (orally) for 5 days. On the day following the treatment, the uteri were excised and examined histologically. The endometrial response was graded by the method of McPhail and the % inhibition was determined at each dose. Statistical analysis provides for an ED50 value.

[7] = test system: Ishikawa human endometrial adenocarcinoma cell line; assay: anti-estrogenic activity in Ishikawa cells (block of estrogen-stimulated alkaline phosphates activity); format: cell-based; details: for anti-estrogenic activity in the Ishikawa cell assay: in words, concentration not given
[8] = test system: immature male rats; assay: antiglucocorticoid activity in vivo (thymus weight); design: species or system rat
Experimental: The ability of the compounds to block the effects of dexamethasone (6 μg per day for 7 days) on thymus weight of immature male rats was assessed.

[9] = test system: Human T-47D breast cells; assay: T-47D cell proliferation, agonist format; format: cell-based; details: T47D, 0.01 to 10 nM, maximum at any dose, read-out: Cell Proliferation Agonist maximum % Stim.
Experimental: (§1) Human T-47D breast cells grown in nutrient media were incubated with the standard progestin R5020 alone or with R5020 plus test compound and then assessed by standard procedures for proliferation using incorporation of [^3 H]-thymidine as the measurement. […] The maximum % inhibition (a measure of the efficacy of the compounds) is also given. In the agonist format of this assay the compounds were tested at concentrations ranging from 0.01 to 10 nM and the maximum % stimulation at any dose is listed in Table 2. […] However, the presence of a very polar hydroxyl group in the 17α-position greatly diminishes antiprogestational activity and this holds even when the OH is separated from the 17-carbon atom by a methylene group.

[10] = test system: Human T-47D breast cells; assay: T-47D cell proliferation, antagonist format (inhibition of 0.15 nM R5020-mediated proliferation); format: cell-based; details: T47D; for EC50: inhibition of 0.15 nM R5020-mediated proliferation, N.D. not detected; for Emax: maximum % inhibition, 0.15 nM R5020, read-out: Cell Proliferation Antagonist maximum % Inhib.
Experimental: as §1

[11] = test system: rabbits; details: in words; Cook et al., Human Reproduction 1994; cited from earlier work
[12] = test compound 10 mg/day oral + 5 μg estradiol per day

SMILES | McPhail Index, McGinty Assay (Agonist) ([2]; dose 0.3 micrograms) | McPhail Index, McGinty Assay (Agonist) ([2]; dose 3 micrograms) | McPhail Index, McGinty Assay (Agonist) ([2]; dose 30 micrograms) | IC50 [4] [nM] | uterine weight [5, 12] [mg] | Emax [9] [%] | EC50 [10] [nM] | Emax [10] [%] | further results
CN(C)c1ccc([C@H]2C[C@@]3(C)[C@@H](CC[C@@]34OC(=O)CCC4=O)[C@@H]3CCC4=CC(=O)CCC4=C32)cc1 [II 4-Me2 N H O H -- H H H, 11β-[4-(N,N-dimethylamino)phenyl]-3,20-dioxo-17α-hydroxy-19,21-dinorchola-4,9-dien-24-oic acid δ-lactone] | 0 +/- 0 | 0 +/- 0 | 0 | 11.9 |  |  |  |  | IC50 ([1]; cytosolic receptor from rat central prostate, [3H]-5α-dihydrotestosterone): 90 nM; androgen receptor affinity ([1]; in words): very low affinity; progestational activity, McGinty test ([2]; in words): no evidence of progestational activity; antiprogestational activity, anti-McGinty test ([3]; in words): potent antiprogestational activity
C[C@]12CC[C@@H]3c4ccc(O)cc4CC[C@H]3[C@@H]1CC[C@@H]2O [estradiol, reference compound] |  |  |  |  |  |  |  |  | uterine weight ([5]; estradiol alone, 5 μg per day): 1402 ± 104 mg
CC#C[C@]1(O)CC[C@H]2[C@@H]3CCC4=CC(=O)CCC4=C3[C@@H](c3ccc(N(C)C)cc3)C[C@@]21C [mifepristone, reference compound] |  |  |  |  |  |  |  |  | ED50, anti-Clauberg assay [6]: 4.14 mg/day; effectiveness in inhibiting the endometrial response [6]: 67%
CC(=O)O[C@]1(C(C)=O)CC[C@H]2[C@@H]3CCC4=CC(=O)CCC4=C3[C@@H](c3ccc4c(ccn4C)c3)C[C@@]21C [I 1-methylindol-5-yl O H --O--CO--CH3 H, 17α-Acetoxy-11β-(1-methylindol-5-yl)-19-norpregna-4,9-diene-3,20-dione] | 0 +/- 0 | 0 +/- 0 | 0 +/- 0 | 2.4 | 956 ± 115 | 17 | 0.7 | 110 | anti-estrogenic activity in the Ishikawa cell assay [7]: inactive; thymus weight ([8]; 6 μg dexamethasone + 1,000 μg test compound per day, 7 days): 105 ± 8 mg; antiglucocorticoid activity ([8]; 1000 μg per day, in words): little or no antiglucocorticoid activity in vivo; glucocorticoid activity ([8]; compound given alone, in words): Neither did it show significantglucocorticoid activity; thymus weight ([8]; test compound given alone): 270 ± 13 mg
CC(=O)O[C@]1(C(C)=O)CC[C@H]2[C@@H]3CCC4=CC(=O)CCC4=C3[C@@H](c3ccc(N4CCCC4)cc3)C[C@@]21C [I 4-(N-pyrrolidino) H O H --O--CO--CH3 H, 17α-Acetoxy-11β-[4-(N-pyrrolidino)phenyl]-19-norpregna-4,9-diene-3-20-dione] | 0 +/- 0 | 0 +/- 0 | 0 +/- 0 | 0.8 | 919 ± 115 | 1 | 0.4 | 108 | anti-estrogenic activity in the Ishikawa cell assay [7]: inactive
CC(=O)O[C@]1(C(C)=O)CC[C@H]2[C@@H]3CCC4=CC(=O)CCC4=C3[C@@H](c3ccc(N4CCCCC4)cc3)C[C@@]21C [I 4-(N-piperidino) H O H --O--CO--CH3 H, 17α-Acetoxy-11β-[4-(N-piperidino)phenyl]-19-norpregna-4,9-diene-3,20-dione] | 0.1 +/- 0.1 | 0 +/- 0 | 0.2 +/- 0.1 | 1.2 | 998 ± 98 | 0 | 0.2 | 117 | anti-estrogenic activity in the Ishikawa assay ([7]; concentrations up to 10^-6 M): inactive; ED50, anti-Clauberg assay [6]: 0.9 mg/day; potency relative to mifepristone ([6]; more potent than mifepristone): about 5 fold; effectiveness in inhibiting the endometrial response [6]: 100%
C[C@@H]1C[C@H]2[C@@H]3CCC4=CC(=O)C=C[C@]4(C)[C@@]3(F)[C@@H](O)C[C@]2(C)[C@@]1(O)C(=O)CO [dexamethasone, reference compound] |  |  |  |  |  |  |  |  | thymus weight ([8]; 6 μg dexamethasone alone per day, 7 days): 65 ± 8 mg
CC(=O)O[C@]1(C(C)=O)CC[C@H]2[C@@H]3CCC4=CC(=O)CCC4=C3[C@@H](c3ccc(N(C)C)c(F)c3)C[C@@]21C [I 4-Me2 N 3-F O H --O--CO--CH3 H, 17α-Acetoxy-11β-(4-N,N-Dimethylamino-3-fluorophenyl)-19-norpregna4,9-diene-3,20-dione] | 2.5 +/- 0.2 | 3.0 +/- 0.3 | 3.6 +/- 0.1 | 2.2 |  | 30 | 0.7 | 101 | McPhail Index, McGinty Assay (Antagonist) ([3]; rabbit, in vivo): 3.6 +/- 0.1 and 3.3 +/- 0.3 and 2.8 +/- 0.3
CC(=O)O[C@]1(C(C)=O)CC[C@H]2[C@@H]3CCC4=CC(=O)CCC4=C3[C@@H](c3ccc(N(C)C)cc3)C[C@@]21C [17α-acetoxy-11β-(4-(N,N-dimethylamino)phenyl)-19-norpregna-4,9-diene-3,20-dione] |  |  |  |  |  |  |  |  | antiprogestational activity [11]: potent antiprogestational activity
